For data set [1] the following is noted: solids; cited from earlier work.
For data set [2] the following is noted: Jap. pat. Publn. (kokoku); cited from earlier work.
A short description of data set [3]: Examination of solubility of a UV-A absorbent in various oily materials. The settings on record: amount of “Soft Shade DH” dissolved in 100 g of the oily material.
The nature of data set [4]: Evaluation of pigment dispersibility (wetting point / flowing point). Type of data set: physicochemical. Conditions: difference between wetting point and flowing point; liquid paraffin added to TiO2 containing 10% by weight of oily material. The procedure:
With respect to various oily materials including some N-acylamino acid esters of the present invention, powdery compositions formed by blending each oily material with a powder pigment of titanium dioxide (TiO2) were evaluated or examined from various aspects. This will be described in detail below.
The minimum value in terms of parts by weight in which the powder was put together was defined as wetting point. […] Liquid paraffin was further added thereto from the wetting point, and the minimum numeral of parts by weight of the liquid paraffin in which the mixture came to show a fluidity was defined as flowing point.
The smaller the difference between the wetting point and the flowing point, the better the dispersibility (“Science of Fragrance”, published by Fragrance Journal in 1990, p. 390). Accordingly, the index of pigment dispersibility was evaluated in terms of the difference between the wetting point and the flowing point. That is, in Table 47, when the difference between the wetting point and the flowing point was up to 35, it was rated as ∘∘; when the difference was between 36 and 45, it was rated as ∘; and when the difference was between 46 and 55, it was rated as Δ; and when the difference was 56 or more, it was rated as ×.

`COc1ccc(C(=O)CC(=O)c2ccc(C(C)(C)C)cc2)cc1` [4-t-butyl-4′-methoxybenzoylmethane]: the “solubility in water and oil” value in data set [1] was “sparingly soluble in water and oil”.
Turning to `CCCCC(CC)C(=O)N(C)CCC(=O)OC` (stereo not drawn) [N-2-ethylhexanoyl-N-methyl-β-alanine.methyl ester], the “compatibility with an oily solvent” value in data set [2] is on record as “poor”.
Take `CCCCCCCCCCCC(=O)N(C)CC(=O)OCCCCCCCCCCCCCCCC(C)C` [Reference Synthesis Example 1, N-lauroylsarcosine isostearyl ester]: the Solubility entry in data set [3] is “X (The amount of the compound dissolved in 100 g of the oily material is less than 5 g.)”. In addition, the Pigment dispersibility result in data set [4] was “Δ (when the difference was between 46 and 55, it was rated as Δ)”.
With `CCCCCCCCCCCC(=O)N(C)CC(=O)OCC(CCCCCCCC)CCCCCCCCCC` (stereo not shown) [Reference Synthesis Example 2, N-lauroylsarcosine octyl dodecyl ester], the Solubility result in data set [3] is given as “X (The amount of the compound dissolved in 100 g of the oily material is less than 5 g.)”.
`CCCCCCCCCCCC(=O)N(C)CC(=O)OC(C)C` [Synthesis Example 14, N-laurolysarcosine isopropyl ester]: the Solubility entry in data set [3] is on record as “◯ (It is at least 10 g.)”. Also, the Pigment dispersibility entry in data set [4] is recorded as “◯◯”.
For the molecule `CCCCCCCCCCCC(=O)N(C)CCC(=O)OC(C)C` [Synthesis Example 15, N-lauroyl-N-methyl-β-alanine isopropyl ester], in data set [3], the Solubility entry is given as “◯ (It is at least 10 g.)”. For the same molecule, the Pigment dispersibility entry in data set [4] was “◯◯”.
On to `CCCCCCCCCCCCCCCCCC(=O)OCC(O)CO` (stereo not shown) [glycerol stearate], for which the Solubility entry in data set [3] is “X (The amount of the compound dissolved in 100 g of the oily material is less than 5 g.)”.
`CCCCCCCCCCCCCC(=O)OC(C)C` [isopropyl myristate]: the Solubility entry in data set [3] is “X (The amount of the compound dissolved in 100 g of the oily material is less than 5 g.)”. In data set [4], the Pigment dispersibility result was “Δ (when the difference was between 46 and 55, it was rated as Δ)”.
As for `CCCCCCCCCCCC(=O)N[C@@H](CCC(=O)OCC(CCCCCCCC)CCCCCCCCCC)C(=O)OCC(CCCCCCCC)CCCCCCCCCC` (stereo partly shown) [lauroylglutamic acid octyldodecyl diester], the Pigment dispersibility result in data set [4] is “Δ (when the difference was between 46 and 55, it was rated as Δ)”.
